Results published in patent US12435080B2, “sGC stimulators” (Tisento Therapeutics Inc., priority 2016, dated 2025).
Several values for one entry are separate records, joined by “and”; a condition that tells them apart may be missing. Equal entries are not always repeated.

Molecular target: T1, sGC enzyme (Homo sapiens, UniProt Q02108+Q02153)
T1 construct: incorporated into these cells detect cGMP formed by the compounds stimulating the sGC enzyme; host or cells: HEK293 cells stably expressing GloSensor 40F cGMP biosensor
T1 sequence (Q02153 1-619): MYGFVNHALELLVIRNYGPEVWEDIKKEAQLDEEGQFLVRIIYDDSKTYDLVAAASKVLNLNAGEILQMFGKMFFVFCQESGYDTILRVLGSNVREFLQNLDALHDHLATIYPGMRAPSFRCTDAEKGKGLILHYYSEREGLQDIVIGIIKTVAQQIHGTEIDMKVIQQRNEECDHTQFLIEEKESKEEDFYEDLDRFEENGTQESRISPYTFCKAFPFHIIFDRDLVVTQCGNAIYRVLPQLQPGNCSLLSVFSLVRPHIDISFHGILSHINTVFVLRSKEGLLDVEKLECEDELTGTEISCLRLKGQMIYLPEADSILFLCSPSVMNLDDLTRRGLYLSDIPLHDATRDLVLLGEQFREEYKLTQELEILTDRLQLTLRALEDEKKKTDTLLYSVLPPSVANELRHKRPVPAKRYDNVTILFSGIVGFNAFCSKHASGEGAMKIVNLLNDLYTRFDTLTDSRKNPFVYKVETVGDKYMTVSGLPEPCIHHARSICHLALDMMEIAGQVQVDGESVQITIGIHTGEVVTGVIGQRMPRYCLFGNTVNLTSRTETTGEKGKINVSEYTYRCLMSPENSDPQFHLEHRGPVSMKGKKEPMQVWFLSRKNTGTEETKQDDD
T1 sequence (Q02108 1-690): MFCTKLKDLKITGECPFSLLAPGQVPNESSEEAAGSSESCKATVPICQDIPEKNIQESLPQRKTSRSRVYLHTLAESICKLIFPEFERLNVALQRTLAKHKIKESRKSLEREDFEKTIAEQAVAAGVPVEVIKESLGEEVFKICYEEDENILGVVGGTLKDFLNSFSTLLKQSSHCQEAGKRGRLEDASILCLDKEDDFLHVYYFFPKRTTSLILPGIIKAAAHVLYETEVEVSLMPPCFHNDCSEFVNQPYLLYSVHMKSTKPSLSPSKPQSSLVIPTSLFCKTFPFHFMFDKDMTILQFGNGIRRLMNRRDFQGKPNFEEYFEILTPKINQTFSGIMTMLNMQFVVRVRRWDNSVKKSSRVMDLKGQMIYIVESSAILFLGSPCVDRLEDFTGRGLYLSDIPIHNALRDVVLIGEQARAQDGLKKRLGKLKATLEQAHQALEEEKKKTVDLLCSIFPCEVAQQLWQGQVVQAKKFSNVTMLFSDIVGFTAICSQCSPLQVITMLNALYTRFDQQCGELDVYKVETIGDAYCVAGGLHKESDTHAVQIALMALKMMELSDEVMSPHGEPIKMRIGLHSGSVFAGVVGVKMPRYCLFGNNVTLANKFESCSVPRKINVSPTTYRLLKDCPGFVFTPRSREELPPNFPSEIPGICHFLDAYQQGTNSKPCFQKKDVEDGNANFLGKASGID
Experiment: cGMP GloSensor cell-based assay, 384-well format
Details: HEK293 cells expressing GloSensor 40F cGMP; 10 μM DETA-NONOate; normalized to 30 μM Compound Y; compounds in Table IA; read-out: Glo-sensor AbsEC50
Procedure, shortened: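 HEK293 cells expressing GloSensor 40F cGMP luciferase biosensor, preloaded with 2 mM GloSensor substrate for 90 min at 25 °C. Endpoint luminescence read after 55 min compound incubation at room temperature.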

Compound `Fc1ccccc1Cn1nc(-c2nc(C3CC3(F)F)n[nH]2)c2cccnc21` (stereo not drawn) [Compound I-96, 3-(3-(2,2-Difluorocyclopropyl)-1H-1,2,4-triazol-5-yl)-1-(2-fluorobenzyl)-1H-pyrazolo[3,4-b]pyridine] has an EC50 of under 100 nM.

`FC(F)(F)c1n[nH]c(-c2nn(CCC(F)(F)C(F)(F)F)c3ncccc23)n1` [Compound I-2, 1-(3,3,4,4,4-pentafluorobutyl)-3-(3-(trifluoromethyl)-1H-1,2,4-triazol-5-yl)-1H-pyrazolo[3,4-b]pyridine] gave an EC50 of 100 to 1000 nM.

In the case of `Fc1cccc(Cc2nn(-c3nc(C(F)(F)F)n[nH]3)c3cccnc23)c1F` [Compound I-105, 3-(2,3-Difluorobenzyl)-1-(3-(trifluoromethyl)-1H-1,2,4-triazol-5-yl)-1H-pyrazolo[4,3-b]pyridine], the EC50 is reported as under 100 nM.

For `Fc1ccccc1Cc1nn(-c2nc(C(F)F)n[nH]2)c2cccnc12` [Compound I-101, 1-(3-(Difluoromethyl)-1H-1,2,4-triazol-5-yl)-3-(2-fluorobenzyl)-1H-pyrazolo[4,3-b]pyridine], the EC50 was under 100 nM.

`N#Cc1n[nH]c(-c2nn(Cc3ccccc3F)c3ncccc23)n1` [Compound I-41] gave an EC50 of under 100 nM.

In the case of `FC(F)(F)c1n[nH]c(-c2nn(Cc3ccccc3)c3ncccc23)n1` [Compound I-49, 1-Benzyl-3-(3-(trifluoromethyl)-1H-1,2,4-triazol-5-yl)-1H-pyrazolo[3,4-b]pyridine], the EC50 is reported as under 100 nM.

`FC(F)(F)c1n[nH]c(-c2nn(Cc3cncnc3)c3ncccc23)n1` [Compound I-4, 1-(Pyrimidin-5-ylmethyl)-3-(3-(trifluoromethyl)-1H-1,2,4-triazol-5-yl)-1H-pyrazolo[3,4-b]pyridine] showed an EC50 of under 100 nM.

Compound `OCc1n[nH]c(-c2nn(Cc3ccccc3F)c3ncccc23)n1` [Compound I-64, (5-(1-(2-fluorobenzyl)-1H-pyrazolo[3,4-b]pyridin-3-yl)-1H-1,2,4-triazol-3-yl)methanol] has an EC50 of under 100 nM.

With `Fc1ccccc1Cc1nn(-c2nc(C(F)(F)F)n[nH]2)c2cccnc12` [Compound I-31, 3-(2-Fluorobenzyl)-1-(3-(trifluoromethyl)-1H-1,2,4-triazol-5-yl)-1H-pyrazolo[4,3-b]pyridine] the EC50 was 100 to 1000 nM.

In the case of `Fc1cccc(Cn2nc(-c3nc(Cl)n[nH]3)c3cccnc32)c1F` [Compound I-86, 3-(3-Chloro-1H-1,2,4-triazol-5-yl)-1-(2,3-difluorobenzyl)-1H-pyrazolo[3,4-b]pyridine], the EC50 is reported as under 100 nM.

`Cc1ncc(Cn2nc(-c3nc(C(F)(F)F)n[nH]3)c3ccccc32)cn1` [Compound I-62, 1-((2-methylpyrimidin-5-yl)methyl)-3-(3-(trifluoromethyl)-1H-1,2,4-triazol-5-yl)-1H-indazole] showed an EC50 of under 100 nM.

With `Fc1cccc(Cn2nc(-c3nc(C(F)(F)F)n[nH]3)c3cccnc32)c1F` [Compound I-48, 1-(2,3-Difluorobenzyl)-3-(3-(trifluoromethyl)-1H-1,2,4-triazol-5-yl)-1H-pyrazolo[3,4-b]pyridine] the EC50 was 100 to 1000 nM and < 100 nM.
